The NIST ThermoML archive (doi:10.1021/je301167q)
Numbers after ± are expanded uncertainties.

Assays:
[1] = xn = mol fraction of the nth substance listed; settings: 101 kPa, Liquid; for speed of sound: Sing-around technique in a fixed-path interferometer
[2] = 101 kPa, Liquid; for speed of sound: Sing-around technique in a fixed-path interferometer

CCCCCCCC[n+]1ccn(C)c1.F[B-](F)(F)F [1-methyl-3-octylimidazolium tetrafluoroborate] + CCCCN
[1], x1 = 1
Settings	mass density [kg/m3]	speed of sound [m/s]
298.15 K	1097.61 ± 0.83	1481.1 ± 1.3
308.15 K	1090.9 ± 0.81	1453.9 ± 1.3
318.15 K	1084.17 ± 0.79	1428.2 ± 1.3

CCCCCCCCN [1-octanamine] + CCCCCCCC[n+]1ccn(C)c1.F[B-](F)(F)F
[1]
Settings	mass density, 298.15 K [kg/m3]	mass density, 308.15 K [kg/m3]	mass density, 318.15 K [kg/m3]	speed of sound, 298.15 K [m/s]	speed of sound, 308.15 K [m/s]	speed of sound, 318.15 K [m/s]
x2 = 0	777.45 ± 1	769.46 ± 1	761.47 ± 1.1	1343.2 ± 1.1	1303.1 ± 1.1	1263.5 ± 1.1
x2 = 0.1563	851.54 ± 0.83	843.71 ± 0.85	835.78 ± 0.87	1353.1 ± 1.1	1314.6 ± 1.1	1276.9 ± 1.1
x2 = 0.3025	910.65 ± 0.7	902.92 ± 0.72	895.08 ± 0.74	1370.2 ± 1.1	1334.4 ± 1.1	1299 ± 1.1
x2 = 0.4175	951.05 ± 0.63	943.4 ± 0.64	935.73 ± 0.66	1387.6 ± 1.2	1353.8 ± 1.2	1320.5 ± 1.2
x2 = 0.5225	983.58 ± 0.57	976.2 ± 0.58	968.62 ± 0.6	1404.3 ± 1.2	1372.4 ± 1.2	1340.9 ± 1.2
x2 = 0.6252	1011.86 ± 0.57	1004.63 ± 0.56	997.3 ± 0.55	1420.9 ± 1.2	1390.6 ± 1.2	1360.7 ± 1.2
x2 = 0.7202	1035.54 ± 0.63	1028.44 ± 0.62	1021.3 ± 0.6	1436.5 ± 1.2	1407.1 ± 1.2	1378.4 ± 1.2
x2 = 0.794	1052.58 ± 0.68	1045.53 ± 0.67	1038.51 ± 0.65	1449 ± 1.2	1419.9 ± 1.2	1392.2 ± 1.2
x2 = 0.7994	1053.88 ± 0.69	1046.83 ± 0.67	1039.75 ± 0.65	1449.2 ± 1.2	1421.1 ± 1.2	1393.2 ± 1.2
x2 = 0.8691	1069.21 ± 0.73	1062.23 ± 0.72	1055.21 ± 0.7	1461.3 ± 1.3	1432.7 ± 1.3	1405.8 ± 1.3
x2 = 0.9259	1081.47 ± 0.77	1074.59 ± 0.76	1067.76 ± 0.74	1470.5 ± 1.3	1442.2 ± 1.3	1416.1 ± 1.3

CCCCN [1-butanamine] + CCCCCCCC[n+]1ccn(C)c1.F[B-](F)(F)F
[1]
Settings	mass density, 298.15 K [kg/m3]	mass density, 308.15 K [kg/m3]	mass density, 318.15 K [kg/m3]	speed of sound, 298.15 K [m/s]	speed of sound, 308.15 K [m/s]	speed of sound, 318.15 K [m/s]
x2 = 0	733.33 ± 1.1	723.67 ± 1.1	714 ± 1.2	1246.5 ± 0.9	1201.3 ± 0.9	1156.2 ± 0.9
x2 = 0.0963	817.1 ± 0.88	807.93 ± 0.91	800.03 ± 0.93	1276.5 ± 0.9	1235 ± 0.9	1193.1 ± 0.9
x2 = 0.1917	880.04 ± 0.73	871.4 ± 0.75	863.91 ± 0.77	1309 ± 1	1270.6 ± 1	1232 ± 0.9
x2 = 0.2948	932.2 ± 0.62	924.07 ± 0.64	916.37 ± 0.66	1344.1 ± 1	1309 ± 1	1274 ± 1
x2 = 0.3866	968.66 ± 0.56	960.74 ± 0.57	953.13 ± 0.59	1371.6 ± 1	1338.8 ± 1	1306.4 ± 1
x2 = 0.49	1001.63 ± 0.51	993.95 ± 0.52	986.41 ± 0.53	1398.9 ± 1.1	1368.2 ± 1.1	1337.9 ± 1.1
x2 = 0.5895	1027.36 ± 0.57	1019.96 ± 0.56	1012.6 ± 0.54	1421.3 ± 1.1	1391.9 ± 1.1	1363.3 ± 1.1
x2 = 0.7124	1053.43 ± 0.65	1046.28 ± 0.63	1039.31 ± 0.62	1442.7 ± 1.2	1414.8 ± 1.2	1387.4 ± 1.1
x2 = 0.7925	1067.91 ± 0.7	1060.88 ± 0.68	1053.97 ± 0.67	1454.2 ± 1.2	1427.1 ± 1.2	1400 ± 1.2
x2 = 0.8843	1082.31 ± 0.76	1075.48 ± 0.74	1068.67 ± 0.72	1465.8 ± 1.2	1438.8 ± 1.2	1412.3 ± 1.2

CCCCCCCC[n+]1ccn(C)c1.F[B-](F)(F)F [1-methyl-3-octylimidazolium tetrafluoroborate] + CCCCCCCCN
[1], x1 = 1
Settings	mass density [kg/m3]	speed of sound [m/s]
298.15 K	1097.61 ± 0.83	1481.1 ± 1.3
308.15 K	1090.9 ± 0.81	1453.9 ± 1.3
318.15 K	1084.17 ± 0.79	1428.2 ± 1.3

CCCCCCCC[n+]1ccn(C)c1.F[B-](F)(F)F [1-methyl-3-octylimidazolium tetrafluoroborate]
[2]
Settings	mass density [kg/m3]	speed of sound [m/s]
298.15 K	1097.61 ± 0.83	1481.1 ± 1.3
308.15 K	1090.9 ± 0.81	1453.9 ± 1.3
318.15 K	1084.17 ± 0.79	1428.2 ± 1.3

CCCCCCn1cc[n+](C)c1.F[B-](F)(F)F [1-hexyl-3-methylimidazolium tetrafluoroborate] + CCCCCCCCN
[1], x1 = 1
Settings	mass density [kg/m3]	speed of sound [m/s]
298.15 K	1145.11 ± 0.96	1496.7 ± 1.3
308.15 K	1137.71 ± 0.94	1472 ± 1.3
318.15 K	1130.49 ± 0.92	1447.7 ± 1.3

CCCCN [1-butanamine]
[2]
Settings	mass density [kg/m3]	speed of sound [m/s]
298.15 K	733.33 ± 1.1	1246.5 ± 0.9
308.15 K	723.67 ± 1.1	1201.3 ± 0.9
318.15 K	714 ± 1.2	1156.2 ± 0.9

CCCCCCn1cc[n+](C)c1.F[B-](F)(F)F [1-hexyl-3-methylimidazolium tetrafluoroborate] + CCCCN
[1], x1 = 1
Settings	mass density [kg/m3]	speed of sound [m/s]
298.15 K	1145.11 ± 0.96	1496.7 ± 1.3
308.15 K	1137.71 ± 0.94	1472 ± 1.3
318.15 K	1130.49 ± 0.92	1447.7 ± 1.3

CCCCCCn1cc[n+](C)c1.F[B-](F)(F)F [1-hexyl-3-methylimidazolium tetrafluoroborate]
[2]
Settings	mass density [kg/m3]	speed of sound [m/s]
298.15 K	1145.11 ± 0.96	1496.7 ± 1.3
308.15 K	1137.71 ± 0.94	1472 ± 1.3
318.15 K	1130.49 ± 0.92	1447.7 ± 1.3

CCCCCCCCN [1-octanamine]
[2]
Settings	mass density [kg/m3]	speed of sound [m/s]
298.15 K	777.45 ± 1	1343.2 ± 1.1
308.15 K	769.46 ± 1	1303.1 ± 1.1
318.15 K	761.47 ± 1.1	1263.5 ± 1.1

CCCCCCCCN [1-octanamine] + CCCCCCn1cc[n+](C)c1.F[B-](F)(F)F
[1]
Settings	mass density, 298.15 K [kg/m3]	mass density, 308.15 K [kg/m3]	mass density, 318.15 K [kg/m3]	speed of sound, 298.15 K [m/s]	speed of sound, 308.15 K [m/s]	speed of sound, 318.15 K [m/s]
x2 = 0	777.45 ± 1	769.46 ± 1	761.47 ± 1.1	1343.2 ± 1.1	1303.1 ± 1.1	1263.5 ± 1.1
x2 = 0.2986	914.74 ± 0.7	906.98 ± 0.71	899.32 ± 0.73	1365.4 ± 1.1	1331.6 ± 1.1	1306.8 ± 1.1
x2 = 0.398	954.27 ± 0.62	946.51 ± 0.64	938.79 ± 0.65	1379.9 ± 1.2	1345.6 ± 1.1	1317.5 ± 1.1
x2 = 0.4981	991.03 ± 0.56	983.38 ± 0.57	975.59 ± 0.59	1396.2 ± 1.2	1364.9 ± 1.2	1333.8 ± 1.2
x2 = 0.5999	1025.72 ± 0.6	1017.96 ± 0.59	1010.27 ± 0.57	1416.6 ± 1.2	1386.2 ± 1.2	1356.4 ± 1.2
x2 = 0.6994	1057.35 ± 0.69	1049.51 ± 0.67	1041.89 ± 0.65	1437.5 ± 1.2	1409.6 ± 1.2	1381.5 ± 1.2
x2 = 0.7998	1087.45 ± 0.78	1079.76 ± 0.76	1072.25 ± 0.74	1460.3 ± 1.2	1433.5 ± 1.2	1408.2 ± 1.2
x2 = 0.8945	1114.95 ± 0.87	1107.34 ± 0.84	1099.87 ± 0.82	1479.6 ± 1.3	1455.6 ± 1.3	1431.7 ± 1.3

CCCCN [1-butanamine] + CCCCCCn1cc[n+](C)c1.F[B-](F)(F)F
[1]
Settings	mass density, 298.15 K [kg/m3]	mass density, 308.15 K [kg/m3]	mass density, 318.15 K [kg/m3]	speed of sound, 298.15 K [m/s]	speed of sound, 308.15 K [m/s]	speed of sound, 318.15 K [m/s]
x2 = 0	733.33 ± 1.1	723.67 ± 1.1	714 ± 1.2	1246.5 ± 0.9	1201.3 ± 0.9	1156.2 ± 0.9
x2 = 0.0994	820.09 ± 0.88	810.83 ± 0.9	803.47 ± 0.92	1272.3 ± 0.9	1231.1 ± 0.9	1188.8 ± 0.9
x2 = 0.2012	890.48 ± 0.71	881.55 ± 0.73	874.79 ± 0.75	1305.8 ± 1	1267.4 ± 1	1229 ± 0.9
x2 = 0.302	946.28 ± 0.6	937.89 ± 0.61	930.48 ± 0.63	1341 ± 1	1305.5 ± 1	1270.1 ± 1
x2 = 0.4065	993.19 ± 0.52	985.04 ± 0.53	977.3 ± 0.55	1376.3 ± 1	1343.8 ± 1	1312 ± 1
x2 = 0.4959	1026.43 ± 0.56	1018.45 ± 0.55	1010.64 ± 0.53	1404.6 ± 1.1	1374.3 ± 1.1	1344.3 ± 1.1
x2 = 0.5886	1055.62 ± 0.64	1047.87 ± 0.62	1040.15 ± 0.6	1428.9 ± 1.1	1401.1 ± 1.1	1373.6 ± 1.1
x2 = 0.7069	1086.83 ± 0.74	1079.26 ± 0.72	1071.7 ± 0.7	1456.2 ± 1.1	1429.9 ± 1.1	1403.8 ± 1.1
x2 = 0.8126	1110.28 ± 0.82	1102.83 ± 0.8	1095.43 ± 0.78	1474.1 ± 1.2	1450.2 ± 1.2	1423.8 ± 1.2
x2 = 0.8796	1123.46 ± 0.87	1116.13 ± 0.85	1108.89 ± 0.83	1483.2 ± 1.2	1459.8 ± 1.2	1433.9 ± 1.2
